PubChem BioAssay (NCI)
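Results reflect a 48-hour exposure of cells in 96-well plates to compound at five concentrations. At the GI50, growth is halved. TGI: total growth inhibition.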

Columns and labels:
Experiment in all cases: NCI tumour cell line growth inhibition, 48 h; in the data active = GI50 below about 0.43 µM; inactive = the rest
786-0 renal = test system: 786-0 renal
A498 renal = test system: A498 renal
ACHN renal = test system: ACHN renal
BT-549 breast = test system: BT-549 breast
CAKI-1 renal = test system: CAKI-1 renal
CCRF-CEM leukemia = test system: CCRF-CEM leukemia
DU-145 prostate = test system: DU-145 prostate
EKVX NSCLC = test system: EKVX NSCLC
HCC-2998 colon = test system: HCC-2998 colon
HCT-116 colon = test system: HCT-116 colon
HCT-15 colon = test system: HCT-15 colon
HOP-62 NSCLC = test system: HOP-62 NSCLC
HOP-92 NSCLC = test system: HOP-92 NSCLC
IGROV1 ovarian = test system: IGROV1 ovarian
K-562 leukemia = test system: K-562 leukemia
KM12 colon = test system: KM12 colon
LOX IMVI melanoma = test system: LOX IMVI melanoma
M14 melanoma = test system: M14 melanoma
MALME-3M melanoma = test system: MALME-3M melanoma
MCF7 breast = test system: MCF7 breast
MDA-MB-231 breast = test system: MDA-MB-231 breast
MDA-MB-435 = test system: MDA-MB-435
MOLT-4 leukemia = test system: MOLT-4 leukemia
NCI-H226 lung = test system: NCI-H226 lung
NCI-H460 lung = test system: NCI-H460 lung
NCI-H522 lung = test system: NCI-H522 lung
NCI/ADR-RES ovarian = test system: NCI/ADR-RES ovarian
OVCAR-3 ovarian = test system: OVCAR-3 ovarian
OVCAR-5 ovarian = test system: OVCAR-5 ovarian
OVCAR-8 ovarian = test system: OVCAR-8 ovarian
PC-3 prostate = test system: PC-3 prostate
RPMI-8226 leukemia = test system: RPMI-8226 leukemia
SF-268 CNS = test system: SF-268 CNS
SF-295 CNS = test system: SF-295 CNS
SF-539 CNS = test system: SF-539 CNS
SK-MEL-2 melanoma = test system: SK-MEL-2 melanoma
SK-MEL-28 melanoma = test system: SK-MEL-28 melanoma
SK-MEL-5 melanoma = test system: SK-MEL-5 melanoma
SK-OV-3 ovarian = test system: SK-OV-3 ovarian
SN12C renal = test system: SN12C renal
SNB-19 CNS = test system: SNB-19 CNS
SNB-75 CNS = test system: SNB-75 CNS
SR leukemia = test system: SR leukemia
SW-620 colon = test system: SW-620 colon
T-47D breast = test system: T-47D breast
TK-10 renal = test system: TK-10 renal
U251 CNS = test system: U251 CNS
UACC-257 melanoma = test system: UACC-257 melanoma
UACC-62 melanoma = test system: UACC-62 melanoma
UO-31 renal = test system: UO-31 renal

CS(=O)(=O)c1ccc2c(c1)c1c(n2S(=O)(=O)c2ccc(Cl)cc2)CCCC1
> 100 µM: TGI (786-0 renal) | TGI (A498 renal) | TGI (ACHN renal) | TGI (BT-549 breast) | TGI (CAKI-1 renal) | TGI (CCRF-CEM leukemia) | TGI (DU-145 prostate) | TGI (EKVX NSCLC) | TGI (HCC-2998 colon) | TGI (HCT-116 colon) | TGI (HCT-15 colon) | TGI (HOP-62 NSCLC) | TGI (HOP-92 NSCLC) | TGI (IGROV1 ovarian) | TGI (K-562 leukemia) | TGI (KM12 colon) | TGI (LOX IMVI melanoma) | TGI (M14 melanoma) | TGI (MALME-3M melanoma) | TGI (MCF7 breast) | TGI (MDA-MB-231 breast) | TGI (MOLT-4 leukemia) | TGI (NCI-H226 lung) | TGI (NCI-H460 lung) | TGI (NCI/ADR-RES ovarian) | TGI (OVCAR-3 ovarian) | TGI (OVCAR-5 ovarian) | TGI (OVCAR-8 ovarian) | TGI (PC-3 prostate) | TGI (RPMI-8226 leukemia) | TGI (SF-268 CNS) | TGI (SF-295 CNS) | TGI (SF-539 CNS) | TGI (SK-MEL-28 melanoma) | TGI (SK-MEL-5 melanoma) | TGI (SK-OV-3 ovarian) | TGI (SN12C renal) | TGI (SNB-19 CNS) | TGI (SR leukemia) | TGI (SW-620 colon) | TGI (T-47D breast) | TGI (TK-10 renal) | TGI (U251 CNS) | TGI (UACC-257 melanoma) | TGI (UACC-62 melanoma) | TGI (UO-31 renal)
3.29 µM: TGI (MDA-MB-435)
7.44 µM: TGI (SK-MEL-2 melanoma)
inactive: GI50 (786-0 renal) 4.73 µM | GI50 (A498 renal) > 100 µM | GI50 (ACHN renal) 7.56 µM | GI50 (BT-549 breast) 5.39 µM | GI50 (CAKI-1 renal) 3.12 µM | GI50 (CCRF-CEM leukemia) 3.16 µM | GI50 (DU-145 prostate) 4.3 µM | GI50 (EKVX NSCLC) 5.55 µM | GI50 (HCC-2998 colon) 3.57 µM | GI50 (HCT-116 colon) 3.5 µM | GI50 (HCT-15 colon) 1.93 µM | GI50 (HOP-62 NSCLC) 4.3 µM | GI50 (HOP-92 NSCLC) 3.04 µM | GI50 (IGROV1 ovarian) 5.24 µM | GI50 (K-562 leukemia) 0.706 µM | GI50 (KM12 colon) 3.16 µM | GI50 (LOX IMVI melanoma) 4.32 µM | GI50 (M14 melanoma) 3.69 µM | GI50 (MALME-3M melanoma) 7.11 µM | GI50 (MCF7 breast) 2.61 µM | GI50 (MDA-MB-231 breast) 4.25 µM | GI50 (MDA-MB-435) 0.583 µM | GI50 (MOLT-4 leukemia) 4.49 µM | GI50 (NCI-H226 lung) 3.22 µM | GI50 (NCI-H460 lung) 3.5 µM | GI50 (NCI-H522 lung) 1.08 µM | GI50 (NCI/ADR-RES ovarian) 2.33 µM | GI50 (OVCAR-3 ovarian) 3.56 µM | GI50 (OVCAR-5 ovarian) 5.37 µM | GI50 (OVCAR-8 ovarian) 4.11 µM | GI50 (PC-3 prostate) 3.42 µM | GI50 (RPMI-8226 leukemia) 3.72 µM | GI50 (SF-268 CNS) > 100 µM | GI50 (SF-295 CNS) 4.08 µM | GI50 (SF-539 CNS) 3.15 µM | GI50 (SK-MEL-2 melanoma) 2.15 µM | GI50 (SK-MEL-28 melanoma) 34.8 µM | GI50 (SK-MEL-5 melanoma) 3.92 µM | GI50 (SK-OV-3 ovarian) 4.95 µM | GI50 (SN12C renal) 5.19 µM | GI50 (SNB-19 CNS) 5.54 µM | GI50 (SNB-75 CNS) 1.42 µM | GI50 (SR leukemia) 0.594 µM | GI50 (SW-620 colon) 2.82 µM | GI50 (T-47D breast) 3.71 µM | GI50 (TK-10 renal) > 100 µM | GI50 (U251 CNS) 4.68 µM | GI50 (UACC-257 melanoma) 10.3 µM | GI50 (UACC-62 melanoma) 3.14 µM | GI50 (UO-31 renal) 3.82 µM
6.15 µM: TGI (SNB-75 CNS)
3.39 µM: TGI (NCI-H522 lung)
